The values that follow come from US20220356163A1, “SMALL MOLECULE INHIBITORS OF Id PROTEINS” (MEMORIAL SLOAN KETTERING CANCER CENTER, priority 2019, published 2022).

In one test the target is T1, Id1 (Mus musculus, UniProt P20067).
T1 construct: GST (N, cleaved yes); made in house; host or cells: E. coli Rosetta 2(DE3)
T1 sequence (P20067 1-168): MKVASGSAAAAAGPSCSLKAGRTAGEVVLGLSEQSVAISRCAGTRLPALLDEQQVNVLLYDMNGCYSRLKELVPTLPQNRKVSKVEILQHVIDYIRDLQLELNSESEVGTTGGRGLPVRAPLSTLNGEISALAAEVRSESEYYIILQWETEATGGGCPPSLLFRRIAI
The test can be described thus: Circular dichroism (CD) of Id1. It is filed as binding. The method, then:
Id protein purification. pGEV-PSP-mId1 and mId3 expression constructs were transformed into Rosetta 2(DE3) Competent Cells (Sigma Millipore) for protein expression. To produce recombinant GST-tagged protein, a 50 mL LB/Ampicillin (100 μg/m)+Chloramphenicol (25 μg/mL) culture was grown overnight at 37° C. Early the next day, the overnight culture was diluted 1:100 into 6 L LB/Ampicillin+Chloramphenicol and cultured at 37° C. for about four hours until OD600=0.7. Cultures were induced with 1 mM IPTG and incubated at 16° C. for 16-18 hours. Cells were harvested by centrifugation at 4000 rpm for 15 minutes at 4° C. and the pellet was resuspended in lysis buffer (50 mM Tris pH 8.0; 400 mM NaCl; 0.5 mM TCEP, Protease Inhibitor Cocktail) (25 mL/L of culture). To lyse the cells, Triton X-100 and lysozyme were added to 0.1% and 10 μg/mL respectively, incubated for 30 minutes on ice and sonicated. Lysates were spun at 17,000 rpm for 30 minutes at 4° C. and supernatants were filtered through a […] filter before incubation with glutathione sepharose for two hours at 4° C. The sepharose with bound protein was run through a polypropylene column and washed twice with 50 mL wash buffer (50 mM Tris pH 8.0; 400 mM NaCl) before protein was eluted with 10 mL 50 mM glutathione elution buffer, pH 8.0. Protein was subjected to buffer exchange with PD10 columns (Sigma) into 12 mL storage buffer (50 mM Tris HCl pH 8.0, 400 mM NaCl, 10 mM EDTA, 1 mM DTT, 10% Glycerol).
GST-tag was cleaved with PreScission Protease (0.1 μL of 0.3 μg/μL PreScission Protease cleaves 10 μg of GST-mId1 when incubated at 4° C. for four hours) and incubated with Glutathione Sepharose to separate out the cleaved GST-tag. The cleaved mId1 protein was further cleaned by incubation with GST antibodies (Abcam #ab9085-200 μL anti-GST rabbit polyclonal; ThermoFisher #MA4-004 anti-GST mouse monoclonal) before Coomassie gel analysis. Cleaved protein was concentrated to desired strength using Amicon 3000MCO Ultra-4 centrifugal columns (UFC800308).
Circular dichroism. […]
A general note: CD spectra are sensitive to the conformation of chiral molecules.

Test [1] has as its system choroidal neovascularization. The test can be described thus: Laser-induced choroidal neovascularization (CNV) model of AMD. The format is in vivo, mouse. The text has this: Mouse mode/s of ocular neovascularization. CNV was induced as previously described. Tobe et al., Am. J. Pathol., 153, 1641-1646 (1998). Briefly, 4-6 week-old female Id1^−/− or Id3^−/− mice and littermate control Id1^+/+ or Id3^+/+ mice (all in C57BL/6 background) had laser-induced rupture of Bruch's membrane at three locations in each eye and after 14 days mice were euthanized, eyes were removed, and choroidal flat mounts were stained with FITC-labeled Griffonia simplicifolia lectin (Vector Laboratories, Burlingame, Calif.) which selectively stains vascular cells (n=12 mice per group). Flat mounts were examined by fluorescence microscopy and the area of each CNV was measured by image analysis with Image-Pro Plus software (Media Cybernetics, Silver Spring, Md.) by an observer masked with respect to experimental groups. In other experiments, wild type 4-6 week-old, female, C57BL/6 mice had rupture of Bruch's membrane in each eye followed by intravitreal injection of 1-30 μg of AGX51 (racemic, E1 or E2) or vehicle in one eye immediately and after 7 days or mice were given twice daily i.p. injections of 500 μg of AGX51 or vehicle for 14 days (n=7-10 mice per group). The area of CNV was measured 14 days after rupture of Bruch's membrane. For Aflibercept and AGX-A treatment experiments, rupture of Bruch's membrane was carried out and then mice were treated with 40 μg of Aflibercept, 10 μg of AGX51E2, 1-5 μg of AGX51, 1-5 μg of AGX-A, DMSO or combinations. The mice were 4-6 week-old female C57BL/6. After 14 days, the mice were euthanized and CNV was measured as described above.

A further test deals with HCT116 cells. The test can be described thus: IC50 in HCT116 cells (FIG. 7C). It is filed as cell-based.
The subject of the next test is TFK-1. The test can be described thus: Cholangiocarcinoma cell viability, TFK-1. The format is cell-based. The method, then:
(§1) Cell viability assays. Cell lines were seeded in a 96 well plate (5000 cells per well). After overnight incubation, cells were treated with AGX51 and incubated for 24 hours then MTT reagent (5 mg/mL) was added per well and the cells were incubated for four hours. Following incubation, media was aspirated and 200 μL DMSO was added per well. Absorbance was then measured at 570 nm using a plate reader (Synergy 2, BioTek). Cell growth profiles were determined by seeding 38,000 cells in a 24-well plate, in triplicate for each time point, and counting the cells on days 1, 3 and 5 after seeding, using trypan blue exclusion of dead cells.
(§2) The effects of AGX51 and AGX-A on cholangiocarcinoma cell viability were assessed for the six different cholangiocarcinoma cell lines. The measured IC50 values (in μM) from these studies are provided in Table 2 below, along with the ratio of the AGX51 IC50 to the AGX-A IC50 to aid in comparison.

In another test the test system is SNU-1079. The test can be described thus: Cholangiocarcinoma cell viability, SNU-1079. The format is cell-based. Here is the method: as §1, §2
A further test concerns SNU-1196. The test can be described thus: Cholangiocarcinoma cell viability, SNU-1196. The format is cell-based. Here is the method: as §1, §2
The next test relates to HUCC-T1. The test can be described thus: Cholangiocarcinoma cell viability, HUCC-T1. It is filed as cell-based. Here is the method:
as §1, §2

In the next test the test system is EGI-1. The test can be described thus: Cholangiocarcinoma cell viability, EGI-1. The format is cell-based. Here is the method: as §1, §2
In a further test the test system is WITT. The test can be described thus: Cholangiocarcinoma cell viability, WITT. The format is cell-based. Here is the method: as §1, §2

“Also recorded” adds a separate entry of the source. Read-outs that look alike come from different tables or passages of the source.

Broadly, the IC50 is the concentration needed to halve the response being measured. Turning to `COc1ccccc1C(CCNCc1ccccc1)c1ccc(OC(C)C)cc1` (stereo not drawn) [AGX-A, N-benzyl-3-(4-isopropoxyphenyl)-3-(2-methoxyphenyl)propan-1-anine], the “relative activity in CD assay with Id1” value on Id1 (comparison between compounds) is reported as “exhibiting greater activity than AGX51; also recorded: worked at lower concentrations than AGX51”. The “CNV area, AGX-A vs AGX51” value in test [1] (intravitreal 1 μg dose) is reported as “performed better than AGX51”. For the same compound, the “fold reduction in IC50 values vs AGX51” value with HCT116 cells (cell-based assays, FIGS. 7C-7D (HCT116 and 4T1)) is on record as about 4 fold. Moreover, the “dose-dependent effect on TFK1 cell viability vs AGX51” value in the test on TFK-1 (24 hour period, FIG. 23) is on record as “superior anti-cancer potency”. Also, the “(AGX51 IC50)/(AGX-A IC50)” value is listed as 1.33 in the test with TFK-1 (TFK-1); 3.95 with SNU-1079; 1.94 in the test with SNU-1196; 3.33 in the test with HUCC-T1; 3.49 in the test on EGI-1; 6.25 in the test with WITT. Besides, the IC50 with TFK-1 (TFK-1) came to 11.8 µM; in the test with SNU-1079 it was 5.84 µM; in the test on SNU-1196, 14.8 µM; in the test with HUCC-T1, 4.44 µM; in the test on EGI-1 it was 4.49 µM; with WITT, 5.32 µM.

As to `CCC(=O)N(CCC(c1ccc2c(c1)OCO2)c1ccccc1OC)Cc1ccccc1` (racemic) [AGX51, N-(3-(benzo[d][1,3]dioxol-5-yl)-3-(2-methoxyphenyl)propyl)-N-benzylpropionamide], the “alteration of Id1 secondary structure (CD spectra)” value at Id1 (0, 10, 20 and 50 μM) was “significant alteration in the secondary structure of Id1”. Further, the Kd at Id1 (implied from saturation of CD changes, read-out: concentration at which CD changes saturated / range of dissociation constant) is about 20 µM. In addition, in [1] (i.p. 50 μL of 10 mg/mL bid, day 14), the “CNV area relative to vehicle control” value is “reduced CNV area significantly”. In addition, the CNV area result in test [1] (intravitreal 5 μg, days 1 and 7, p<0.05) is on record as “effective at significantly reducing CNV”. Moreover, in test [1] (intravitreal injection), the “Id1 immunofluorescence in CNV regions” value was “no Id1 positive cells”. For the same compound, the “CNV area relative to vehicle” value was “significantly reduced CNV” in [1] (twice daily i.p. injections (~30 mg/kg), p<0.05); “significantly suppressed CNV” in test [1] (two intravitreal injections of 10 μg (2 h and 7 days), day 14, p<0.05). The IC50 in the test on HCT116 cells (Homo sapiens, HCT-116, HCT116 cells, FIG. 7C) turned out to be 22.3 µM; in the test with TFK-1 (TFK-1), 15.7 µM; with SNU-1079, 23.1 µM; in the test with SNU-1196, 28.8 µM; with HUCC-T1 (Homo sapiens, HuCCT-1), 14.8 µM; with EGI-1 (Homo sapiens) it was 15.7 µM. Besides, the concentration for half-maximal inhibition (IC50) in the test on WITT was 33.2 µM.
